Measured values as given in patent US11369623B2, “Anticancer combination of a CBP/catenin inhibitor and an immune checkpoint inhibitor” (PRISM Pharma Co., Ltd., priority 2015, dated 2022).

Tests used:
[1] = test system: bile duct cancer; conditions: cited from earlier work
[2] = cited from earlier work
[3] = test system: 624 mel cells and 928 mel cells; assay: IL-10 production by melanoma cells (ELISA of culture supernatant); type: cell-based, human; conditions: 0.2 μM, 24 hr, FIG. 5
Description: IL-10 Production Suppressive Action of CBP/Catenin Inhibitor (Compound 1)
624 mel cells and 928 mel cells were used, which are cell lines (melanoma) established from human malignant melanoma patients by US NIH. These cells have been activated and have IL-10 production ability.
In a culture medium (10% FCS-containing RPMI1640, penicillin and streptomycin added), respective melanoma cells were seeded in a 6-well plate at a concentration of 1×10^5 cells/2 ml/well. After seeding, compound 1 was added to a given concentration and the cells were cultured for 24 hr. After 24 hr, the culture supernatant was recovered, and the concentration of IL-10 in the supernatant was measured. For the measurement of IL-10 concentration, Human IL10 OptEIA ELISA set (BD, #555157) was used.

[4] = test system: 624 mel cells and 928 mel cells; assay: Influence on proliferation of melanoma cells; type: cell-based, human; conditions: 24 hr, any cell
[5] = test system: human breast cancer cell line (MDA-MB-231); assay: Side population (cancer stem cell) fraction of MDA-MB-231 after compound treatment; type: cell-based; conditions: 0.3 μM in culture medium, after 4 days; untreated 1.6% SP cells
Description: To a side population fraction (cancer stem cells were considered to have been concentrated) obtained by two-dimensional cell sorting of human breast cancer cell line (MDA-MB-231) with Hoechst Blue and Hoechst Red was added 0.3 μM CBP/catenin inhibitor (compound 2) in the culture medium. After 4 days, the side population fraction almost disappeared (when untreated with medicament, 1.6% SP cells were detected, whereas 0% was detected in compound 2 treatment group), and the cancer stem cells were considered to have differentiated (FIG. 3).

[6] = test system: spontaneous breast cancer of transgenic mouse (MMTV-Wnt-1); assay: Tumor volume in mice serially transplanted with spontaneous breast cancer of transgenic mouse (MMTV-Wnt-1); type: in vivo, mouse (C57BL/6J); conditions: compound A 50 mg/kg twice per day oral, antibody 10 mg/kg twice per week i.p.
Text: Effect of combined use of CBP/catenin inhibitor (compound A) and anti-mouse PD-1 (CD279) antibody in animal model serially transplanted with subcultured spontaneous breast cancer of transgenic mouse (MMTV-Wnt-1)
Spontaneous breast cancer of transgenic mouse (MMTV-Wnt-1), in which Wnt-1 had been locally expressed in mammary gland epithelial cells, was harvested, and serially transplanted to the background line mouse (C57BL/6J) with trocar. When the serially transplanted tumor became about 1.5 g, it was isolated, processed into fragments of about 30 mg, and subcutaneously transplanted to the side of the body of 5 mice (C57BL/6J) per each group. Engraftment of the tumor was confirmed, and compound A (50 mg/kg, twice per day, 21 days, oral administration) and anti-mouse PD-1 antibody (Clone: RMP1-14, BioXCell) (10 mg/kg, twice per week, 3 weeks, intraperitoneal administration) were each administered singly or in combination.
With the day of the start of administration as day 0, the major axis and the minor axis of the tumor developed in each mouse were measured by Digimatic Caliper (Mitsutoyo) on days 4, 7, 11, 14, 18, and 21.
The tumor volume was calculated according to the following formula. tumor volume TV(mm^3)=tumor major axis(mm)×tumor minor axis^2(mm^2)/2

O=C1[C@H](Cc2ccc(O)cc2)N2C(=O)CCN(C(=O)NCc3ccccc3)[C@H]2CN1Cc1cccc2ccccc12 [ICG-001, (6S,9aS)-N-benzyl-6-[(4-hydroxyphenyl)methyl]-8-(naphthalen-1-ylmethyl)-4,7-dioxo-3,6,9,9a-tetrahydro-2H-pyrazino[1,2-a]pyrimidine-1-carboxamide]
proliferation inhibitory effect in animal model [1]: strong proliferation inhibitory effect

C[C@H]1[C@H]2N(C(=O)CN(C)N2C(=O)NCc2ccccc2)[C@@H](Cc2ccc(OP(=O)(O)O)cc2)C(=O)N1Cc1cccc2cccnc12 [PRI-724]
toxicity in human compared with conventional Wnt inhibitors having other mechanisms [2]: clearly less toxic in human than conventional Wnt inhibitors

C[C@H]1[C@H]2N(C(=O)CN(C)N2C(=O)NCc2ccccc2)[C@@H](Cc2ccc(OP(=O)(O)O)cc2)C(=O)N1Cc1cccc2cccnc12 [compound 1, 4-(((6S,9S,9aS)-1-(benzylcarbamoyl)-2,9-dimethyl-4,7-dioxo-8-(quinolin-8-ylmethyl)octahydro-1H-pyrazino[2,1-c][1,2,4]triazin-6-yl)methyl)phenyl dihydrogen phosphate]
production of IL-10 [3]: production of IL-10 was suppressed | influence on the proliferation ([4]; 0.2 μM): an influence on the proliferation was not confirmed | influence on the proliferation ([4]; 1 μM): an influence on the proliferation was confirmed

C[C@H]1[C@H]2N(C(=O)CN(C)N2C(=O)NCc2ccccc2)[C@@H](Cc2ccc(O)cc2)C(=O)N1Cc1cccc2cccnc12 [compound 2, (6S,9S,9aS)-N-benzyl-6-(4-hydroxybenzyl)-2,9-dimethyl-4,7-dioxo-8-(quinolin-8-ylmethyl)octahydro-1H-pyrazino[2,1-c][1,2,4]triazine-1-carboxamide]
SP cells detected (side population fraction) [5]: 0%

C=CCN1CC(=O)N2[C@@H](Cc3ccc(O)cc3F)C(=O)N(Cc3cccc(N4CC(N5CCN(CC)CC5)C4)n3)C[C@@H]2N1C(=O)NCc1ccccc1 [compound A, (6S,9aS)-N-benzyl-8-((6-(3-(4-ethylpiperazin-1-yl)azetidin-1-yl)pyridin-2-yl)methyl)-6-((2-fluoro-4-hydroxyphenyl)methyl)-4,7-dioxo-2-(prop-2-en-1-yl)-octahydro-1H-pyrazino[2,1-c][1,2,4]triazine-1-carboxamide]
tumor volume TV, Mean ± SEM ([6]; Day 0): 75.3 ± 9.2 mm^3 | tumor volume TV, Mean ± SEM ([6]; Day 4): 83.2 ± 8.5 mm^3 | tumor volume TV, Mean ± SEM ([6]; Day 7): 90.5 ± 22.3 mm^3 | tumor volume TV, Mean ± SEM ([6]; Day 11): 123.1 ± 40.5 mm^3 | tumor volume TV, Mean ± SEM ([6]; Day 14): 140.4 ± 45.1 mm^3 | tumor volume TV, Mean ± SEM ([6]; Day 18): 221.6 ± 47.9 mm^3 | tumor volume TV, Mean ± SEM ([6]; Day 21): 237.7 ± 41.2 mm^3
